Data published in patent US11648239B2, “Azophenols as ERG oncogene inhibitors” (The Henry M. Jackson Foundation for the Advancement of …, priority 2015, dated 2023).

Tests used:
ERG protein [1] = target: T1, ERG protein (Homo sapiens, UniProt P11308); assay: Inhibition of ERG protein in VCaP cells (Western blot); type: cell-based; details: for IC50: metastatic prostate cancer, TMPRSS2-ERG fusion, N/D = assay performed, inhibition not detected at the tested levels
T1 construct: host or cells: VCaP
T1 sequence (P11308 33-479 limits assumed): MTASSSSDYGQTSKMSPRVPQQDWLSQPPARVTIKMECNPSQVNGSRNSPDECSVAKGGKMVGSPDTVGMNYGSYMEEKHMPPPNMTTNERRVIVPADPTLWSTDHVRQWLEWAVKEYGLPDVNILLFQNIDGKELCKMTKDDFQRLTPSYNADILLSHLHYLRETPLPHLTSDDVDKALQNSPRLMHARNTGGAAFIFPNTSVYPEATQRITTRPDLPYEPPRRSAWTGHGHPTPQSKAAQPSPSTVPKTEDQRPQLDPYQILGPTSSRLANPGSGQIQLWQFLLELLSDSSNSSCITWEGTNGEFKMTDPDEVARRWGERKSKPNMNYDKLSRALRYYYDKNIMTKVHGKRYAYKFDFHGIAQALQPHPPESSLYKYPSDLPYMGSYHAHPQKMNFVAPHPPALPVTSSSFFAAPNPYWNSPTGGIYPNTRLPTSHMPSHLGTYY
Protocol: The TMPRSS2-ERG fusion positive prostate cancer cell line, VCaP (ATCC), was used to identify the test compound inhibitors of ERG expression. Cells were grown in medium using conditions prescribed by the vendor. VCaP cells in logarithmic growth were seeded in a tissue culture dish at a cell density of 2×10^6 cells per plate. Following 48 hours incubation at 37° C., cells were exposed for a period of 48 hours with 0, 0.05, 0.25 and 0.5 μM concentrations of each test azophenol compound. The inhibition of ERG expression was evaluated by an In-cell Western blot assay (LI-COR Biosciences, Lincoln, Nebr.) using the ERG specific CPDR ERG-MAb as further described below.
(§1) Inhibition of ERG protein expression by the test compounds were determined by Western blot analysis. The ERG specific monoclonal antibody CPDR ERG-MAb was used as the primary antibody. In brief, Western blot was performed by running a fixed amount of total protein extracted from cell lysates of the treated cells using (4-12% Bis-Tris) gel by electrophoresis, followed by transfer to membrane and incubation with primary antibody and continued with HRP-conjugated secondary antibody. Cultured cells were treated at specific dosages with each of the tested ERG inhibitors. Following incubation of the treated cells for an indicated time period, cells were lysed using Mammalian Protein Extraction Reagent (M-PER; Pierce, Rockford, Ill.) containing a protease inhibitor cocktail and phosphatase inhibitor cocktails I & III (Sigma, St Louis, Mo.). Cell lysates containing 50 μg of total protein were electrophoresed through 4-12% Bis-Tris Gel (Invitrogen, Carlsbad, Calif.) and the cellular proteins were transferred to PVDF membrane (Invitrogen, Carlsbad, Calif.). Membranes were incubated at 4° C. for 12 hours with primary antibodies for AR, PSA, GAPDH, α-Tubulin, apoptosis markers and cell cycle regulators. Following exposure to primary antibodies, the membranes were washed with buffer (3×, 5 minutes each at room temperature) followed by incubation with relevant secondary antibodies for 1 hour at 24° C. Finally, the membranes were washed with buffer and developed using the ECL Western blot detection reagent (GE Health Care, Buckinghamshire, UK). The ERG protein expression of the test azophenol compounds were normalized with GAPDH.
In brief, ERG positive VCaP cells in loganthmic growth phase were plated in 10 cm tissue culture dish at a cell density of 2×10^6 cells per dish. The plated cells were treated with 0, 0.2, 0.4, 0.6, 0.8 and 1 μM concentrations of each azophenol compound for a period of 48 hours. Cells from each dish were then processed for Western blot analysis and alterations in the expression of ERG protein were monitored. Both ERG and GAPDH protein band were quantified from each concentration using Image J (NIH) and ERG band density was normalized with corresponding GAPDH protein control. Relative density of ERG in each concentration was calculated and with Graphpad Prism 6 software, the IC50 of each compound was calculated.

VCaP cells = assay: VCaP cell growth inhibition; type: cell-based; details: for IC50: metastatic prostate cancer, TMPRSS2-ERG fusion, N/D = assay performed, inhibition not detected at the tested levels
Protocol: (§2) Approximately 48 hours following plating of cells, the appropriate test compound is added to each well of the tissue culture dish at a predetermined concentration. The medium was replenished every 24 hours with fresh growth medium containing the same concentration of the same test compound for indicated period of the cell growth inhibition assay. Percent cell growth inhibition was calculated using a hemocytometer for estimating cell density in each of the test wells of the tissue culture dish and trypan blue dye exclusion microscopy and photography to estimate the fraction of viable cells in each test well.
To investigate whether the azophenol compounds selectively arrested the growth of ERG positive cancer cells (VCaP), VCaP cells were cultured to achieve cells in logarithmic growth and these cells were then plated in 6 well tissue culture dishes in duplicates at a cell density of 0.2×10^6 cells per well. The plated cells were exposed to 0, 0.2, 0.4, 0.6, 0.8 and 1 μM concentrations of each compound for a period of 8 days. At the end of time period, cells were recovered from the test plate, washed, trypsinized and the cell density of viable cells were determined with trypan blue dye staining method and automated cell counter Bio-Rad TC10. The IC50 of cell growth inhibition of each compound was determined by trypsinizing the cells at the end of the experiment and counting the cells by using the automated cell counter (Bio-Rad TC10 automated cell counter). The average cell numbers of each concentration were used to calculate the IC50 of each compound with the GraphPad Prism 6 software.

AR [2] = assay: Inhibition of endogenous AR protein in VCaP cells (Western blot); type: cell-based; details: 0.25 μM and 1 μM, FIG. 2
Protocol: as §1, with “Following exposure to primary antibodies, the membranes were washed with buffer (3×, 5 minutes each at room temperature) followed by incubation with relevant secondary antibodies for 1 hour at 24° C. Finally, the membranes were washed with buffer and developed using the ECL Western blot detection reagent (GE Health Care, Buckinghamshire, UK). The ERG protein expression of the test azophenol compounds were normalized with GAPDH.” left out

PSA [3] = assay: Inhibition of endogenous PSA protein in VCaP cells (Western blot); type: cell-based; details: 0.25 μM and 1 μM, FIG. 2
Protocol: as §1, with “Following exposure to primary antibodies, the membranes were washed with buffer (3×, 5 minutes each at room temperature) followed by incubation with relevant secondary antibodies for 1 hour at 24° C. Finally, the membranes were washed with buffer and developed using the ECL Western blot detection reagent (GE Health Care, Buckinghamshire, UK). The ERG protein expression of the test azophenol compounds were normalized with GAPDH.” left out

AR [4] = assay: Inhibition of endogenous AR protein in LNCaP cells (Western blot); type: cell-based; details: ERG negative LNCaP; 0.25 μM and 1 μM; FIG. 4
Protocol: (§3) To investigate whether the azophenol compounds of the invention are selective inhibitors of ERG protein expression, representative azophenol compounds were further tested for its ability to inhibit AR and PSA activity in the following AR positive/ERG negative prostate cancer cell lines: LNCaP (mutant AR positive and ERG negative), as well as in LAPC4 cells that are AR (wild type) positive and ERG negative.
(§4) Inhibition of ERG protein expression by the test compounds were determined by Western blot analysis. The ERG specific monoclonal antibody CPDR ERG-MAb was used as the primary antibody. In brief, Western blot was performed by running a fixed amount of total protein extracted from cell lysates of the treated cells using (4-12% Bis-Tris) gel by electrophoresis, followed by transfer to membrane and incubation with primary antibody and continued with HRP-conjugated secondary antibody. Cultured cells were treated at specific dosages with each of the tested ERG inhibitors. Following incubation of the treated cells for an indicated time period, cells were lysed using Mammalian Protein Extraction Reagent (M-PER; Pierce, Rockford, Ill.) containing a protease inhibitor cocktail and phosphatase inhibitor cocktails I & III (Sigma, St Louis, Mo.). […]

PSA [5] = assay: Inhibition of endogenous PSA protein in LNCaP cells (Western blot); type: cell-based; details: ERG negative LNCaP; 0.25 μM and 1 μM; FIG. 4
Protocol: as §3, §4

LNCaP cells = assay: LNCaP cell growth; type: cell-based; details: 0.25 μM and 1 μM, FIG. 5
Protocol: as §2

AR [6] = assay: Inhibition of endogenous AR protein in LAPC-4 cells (Western blot); type: cell-based; details: ERG negative LAPC-4; 0.25 μM and 1 μM; FIG. 6
Protocol: as §3, §4

LAPC-4 cells = assay: LAPC-4 cell growth; type: cell-based; details: 0.25 μM and 1 μM, FIG. 7
Protocol: as §2

RIOK2 protein [7] = target: T2, RIOK2 protein (Homo sapiens, UniProt Q9BVS4); assay: Inhibition of endogenous RIOK2 protein in COLO320 cells (Western blot); type: cell-based; details: 0.25 μM and 1 μM, FIG. 8
T2 sequence (Q9BVS4 whole entry): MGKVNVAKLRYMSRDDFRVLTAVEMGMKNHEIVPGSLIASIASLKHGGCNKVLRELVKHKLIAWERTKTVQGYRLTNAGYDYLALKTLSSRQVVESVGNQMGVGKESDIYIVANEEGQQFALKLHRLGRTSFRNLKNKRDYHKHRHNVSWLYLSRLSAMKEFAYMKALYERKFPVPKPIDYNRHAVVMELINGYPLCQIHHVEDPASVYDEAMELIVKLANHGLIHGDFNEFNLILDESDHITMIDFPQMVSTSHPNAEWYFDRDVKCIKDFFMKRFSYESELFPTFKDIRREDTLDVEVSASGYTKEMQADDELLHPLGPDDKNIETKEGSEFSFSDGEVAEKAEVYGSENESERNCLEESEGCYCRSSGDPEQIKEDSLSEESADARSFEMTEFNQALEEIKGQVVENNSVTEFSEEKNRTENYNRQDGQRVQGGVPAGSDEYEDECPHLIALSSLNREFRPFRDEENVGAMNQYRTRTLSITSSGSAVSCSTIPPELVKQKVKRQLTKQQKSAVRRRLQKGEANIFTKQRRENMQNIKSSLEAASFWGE

COLO320 cells = assay: COLO320 cell growth; type: cell-based; details: 0.25 μM and 1 μM, FIG. 9
Protocol: as §2

ERG protein [8] = target: T3, ERG protein (Homo sapiens, UniProt P11308); assay: Inhibition of ERG protein in HUVEC normal endothelial cells (Western blot); type: cell-based; details: 0.25 μM and 1 μM, FIG. 10
T3 sequence (P11308 1-479): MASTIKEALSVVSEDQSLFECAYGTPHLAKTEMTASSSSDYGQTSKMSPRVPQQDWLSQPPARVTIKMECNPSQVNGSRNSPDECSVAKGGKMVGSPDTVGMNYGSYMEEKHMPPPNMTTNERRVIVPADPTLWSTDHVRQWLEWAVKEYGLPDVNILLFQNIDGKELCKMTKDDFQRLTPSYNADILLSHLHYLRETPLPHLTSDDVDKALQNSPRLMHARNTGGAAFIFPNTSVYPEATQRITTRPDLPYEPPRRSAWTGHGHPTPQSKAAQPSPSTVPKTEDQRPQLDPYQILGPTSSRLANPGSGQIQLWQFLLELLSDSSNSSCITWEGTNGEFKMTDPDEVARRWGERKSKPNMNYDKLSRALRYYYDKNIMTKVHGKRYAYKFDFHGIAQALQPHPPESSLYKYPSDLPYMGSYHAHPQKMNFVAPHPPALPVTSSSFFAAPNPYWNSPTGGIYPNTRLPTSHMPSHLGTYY
Protocol: as §1, with “Following exposure to primary antibodies, the membranes were washed with buffer (3×, 5 minutes each at room temperature) followed by incubation with relevant secondary antibodies for 1 hour at 24° C. Finally, the membranes were washed with buffer and developed using the ECL Western blot detection reagent (GE Health Care, Buckinghamshire, UK). The ERG protein expression of the test azophenol compounds were normalized with GAPDH.” left out

HUVEC = HUVEC cell growth; type: cell-based, human; details: 0.25 μM and 1 μM, FIG. 11
Protocol: as §2

BPH-1 cells = assay: BPH-1 cell growth; type: cell-based; details: 0.25 μM and 1 μM, FIG. 12
Protocol: as §2

RWPE-1 cells = assay: RWPE-1 cell growth; type: cell-based; details: 0.25 μM and 1 μM, FIG. 12
Protocol: as §2

RIOK2 protein [9] = target: T2, RIOK2 protein; assay: Inhibition of RIOK2 protein in VCaP cells (Western blot); type: cell-based; design: host or cells: VCaP; details: 0.1, 0.2, 0.4, 0.6, 0.8 and 1 μM; FIG. 14, 17
ERG protein [10] = target: T3, ERG protein; assay: Inhibition of endogenous ERG protein in COLO320 cells (Western blot); type: cell-based; design: host or cells: COLO320; details: 0.25 μM and 1 μM, FIG. 8
Protocol: as §1, with “Following exposure to primary antibodies, the membranes were washed with buffer (3×, 5 minutes each at room temperature) followed by incubation with relevant secondary antibodies for 1 hour at 24° C. Finally, the membranes were washed with buffer and developed using the ECL Western blot detection reagent (GE Health Care, Buckinghamshire, UK). The ERG protein expression of the test azophenol compounds were normalized with GAPDH.” left out

RIOK2 protein [11] = target: T2, RIOK2 protein; assay: Inhibition of RIOK2 protein in HUVEC normal endothelial cells (Western blot); type: cell-based; design: ERG and RIOK2 proteins in endogenous ERG expressing normal endothelial cells (HUVEC); host or cells: HUVEC; details: 0.25 μM and 1 μM, FIG. 10
[12] = 0.2, 0.4, 0.6, 0.8 and 1 μM, FIG. 19-22, 24

CC(C)c1ccc(O)c(N=Nc2nccs2)c1 [Compound 1]
inhibition of ERG protein in VCaP cells (ERG protein [1]; 0.1, 0.2, 0.4, 0.6, 0.8 and 1 μM, FIG. 13, 16): inhibition | inhibition of endogenous ERG protein (ERG protein [1]; VCaP, 0.25 μM and 1 μM, FIG. 2): inhibition | inhibition of VCaP cell growth (VCaP cells; 0.1, 0.2, 0.4, 0.6, 0.8 and 1 μM, FIG. 15, 18): inhibition | inhibition of the growth of ERG harboring prostate cancer cells (VCaP cells; VCaP, 0.25 μM and 1 μM, FIG. 3): inhibition | inhibition of endogenous AR protein (AR [2]): inhibition | inhibition of endogenous PSA protein (PSA [3]): inhibition | inhibition of endogenous AR protein (AR [4]): lack of inhibition | inhibition of endogenous PSA protein (PSA [5]): lack of inhibition | growth of ERG negative prostate cancer cells (LNCaP cells): do not affect the growth | inhibition of endogenous AR protein (AR [6]): do not inhibit | growth of ERG negative prostate cancer cells (LAPC-4 cells): do not affect the growth | inhibition of endogenous RIOK2 protein (RIOK2 protein [7]): inhibition | inhibition of growth of ERG harboring colon cancer cells (COLO320 cells): inhibition | inhibition of ERG protein (ERG protein [8]): lack of inhibition | growth of ERG harboring normal endothelial cells (HUVEC): do not affect the growth | growth of ERG negative prostate-derived immortalized cells (BPH-1 cells): do not affect the growth | growth of ERG negative prostate-derived immortalized cells (RWPE-1 cells): do not affect the growth | inhibition of RIOK2 protein in VCaP cells (RIOK2 protein [9]): inhibition | inhibition of endogenous ERG protein (ERG protein [10]): inhibition | inhibition of RIOK2 protein (RIOK2 protein [11]): lack of inhibition

CN(C)c1ccc(N=Nc2ccc(Br)cn2)c(O)c1 [Compound 7]
IC50 (ERG protein [1]; VCaP): 559 nM | inhibition of VCaP cell growth (VCaP cells; [12]): inhibition | IC50 (VCaP cells; VCaP): 626 nM

Oc1ccc(N=Nc2ccccn2)c(O)c1 [Compound 5]
IC50 (ERG protein [1]; VCaP): 542 nM | inhibition of VCaP cell growth (VCaP cells; [12]): inhibition | inhibition of VCaP cell growth (VCaP cells; 0.3, 0.6, 1.0, 3.0 and 10.0 μM, FIG. 25-30): inhibition | IC50 (VCaP cells; VCaP): 557 nM

CN(C)c1ccc(N=Nc2ccccn2)c(O)c1 [Compound 6]
IC50 (ERG protein [1]; VCaP): 273 nM | inhibition of VCaP cell growth (VCaP cells; 0.02, 0.05, 0.10, 0.20 and 0.40 μM, FIG. 23): inhibition | inhibition of VCaP cell growth (VCaP cells; [12]): inhibition | IC50 (VCaP cells; VCaP): 73.9 nM
